Data on 1 compound can be found in publication PMC10778824, “New Chalcone Derivatives Containing 2,4-Dichlorobenzenesulfonamide Moiety with Anticancer and Antioxidant Properties” (International Journal of Molecular Sciences, 2023).

In brackets after ≈: the same amount, converted by molar mass.

What all share (assay): MIC determination
Common to all, as to assay type: cell-based
What all share (conditions): 37 °C, 48 h

Assay [1] has as its system Listeria monocytogenes PCM2191. As for the experimental part: (§1) The MIC determinations for Staphylococcus epidermidis ATCC14990, Staphylococcus aureus ATCC6538, Enterococcus faecalis ATCC51299, Klebsiella pneumoniae ATCC13883, Escherichia coli ATCC8739, Salmonella enterica ATCC13076, Helicobacter pylori ATCC43504, Campylobacter jejuni ZMF, Campylobacter coli ZMF, Bacillus cereus PCM 1948,2019 (ATCC11778), and Listeria monocytogenes PCM2191 were performed based on the methodology described by Krauze-Baranowska et al.. The procedure for H. pylori was used in the experiments with Campylobacter strains, and the procedure for B. subtilis was used in the experiments with L. monocytogenes and B. cereus. The tested samples were dissolved in DMSO and diluted with water (concentration of approximately 500 μg/mL). The solutions were diluted geometrically by transferring the mixture/dilution (100 μL) from the first to the twelfth well of the microtiter plate. The final concentrations of samples used for antimicrobial effects ranged from 500 to 0.006 µg/mL. Ampicillin was used as a reference compound in the concentration range of 128 to 0.0625 µg/mL. The tests were incubated at 37 °C for 48 h. The diluent concentration had no effect on the activity of the tested compounds. All experiments were performed in triplicate.

The test system of assay [2] is Bacillus cereus PCM 1948,2019 (ATCC11778). The method, then:
as §1

Assay [3] has as its system Klebsiella pneumoniae ATCC13883. As for the experimental part:
as §1

Assay [4] deals with Salmonella enterica ATCC13076. As for the experimental part: as §1
Assay [5] concerns Campylobacter jejuni ZMF. The method, then:
as §1

For assay [6], the system named is Staphylococcus epidermidis ATCC14990. As for the experimental part: as §1
Assay [7] deals with Escherichia coli ATCC8739. The method, then:
as §1

Assay [8] relates to Staphylococcus aureus ATCC6538. The method, then: as §1
Assay [9] concerns Enterococcus faecalis ATCC51299. The method, then:
as §1

Assay [10] concerns Campylobacter coli ZMF. As for the experimental part:
as §1

Assay [11] concerns Helicobacter pylori ATCC43504. The method, then: as §1

Regarding `CC1(C)S[C@@H]2[C@H](NC(=O)[C@H](N)c3ccccc3)C(=O)N2[C@H]1C(=O)O` [ampicillin, reference compound], the minimum inhibitory concentration (MIC) – broadly, the smallest concentration in the dilution series that meets the test's criterion for growth inhibition – in assay [1] turned out to be 16 µg/mL (≈ 45.8 µM); in assay [2], 125 µg/mL (≈ 358 µM); in assay [3], 62.5 µg/mL (≈ 179 µM); in [4], 0.5 µg/mL (≈ 1.43 µM); in assay [5] it was 32 µg/mL (≈ 91.6 µM); in assay [6], 0.312 µg/mL (≈ 0.894 µM). Also, the MIC in [7] is 3.9 µg/mL (≈ 11.2 µM); in assay [8], 0.08 µg/mL (≈ 0.229 µM); in assay [9], 0.16 µg/mL (≈ 0.458 µM); in assay [10], 16 µg/mL (≈ 45.8 µM); in [11], 3.2 µg/mL (≈ 9.16 µM).
